Measurements from patent publication US7795223B2, “Treatment of inflammatory airway disease” (Novozymes Biopharma Au Ltd., priority 2004, dated 2010).

Experiments:
[1] = test system: human patients with psoriasis, atopic eczema, lichen planus, or contact dermatitis; settings: cited from earlier work
T cells = assay: Blocking of T cell function; type: cell-based; settings: in vitro experiments
BALB/c mice [2] = assay: Murine OVA model of asthma: BAL cell counts and lung histology; type: in vivo, mouse; settings: for eosinophilia on lung histology / eosinophil infiltration into lung tissue: peptide i.n. 24 h before i.n. OVA challenge
Protocol: A murine model in which immunization with ovalbumin (OVA) is used to induce asthma-like symptoms in normal Balb/c mice was employed. This model is described in Archer et al. 2004.
Mice were immunized against OVA by i.p. injection and fourteen days later an intra-nasal (i.n.) challenge dose of OVA protein was administered. Three days later the degree of airway inflammation was assessed by bronchoalveolar lavage (BAL,) followed by counting the infiltrating leukocytes. In addition, the lungs were sectioned and stained with haematoxylin and eosin for histological analysis. In a preliminary experiment, live mice were monitored after treatment using whole body plethysmography to assess the degree of airway obstruction.
Female BALB/c mice (6-8 wk of age) were injected i.p. with 10 μg of OVA (Sigma-Aldrich, St. Louis, Mo.) in 200 μl of alum adjuvant (Serva, Heidelberg, Germany) on day 1. Fourteen days after the i.p. immunization, mice were anaesthetized by an i.p. injection of a mixture of ketamine and xylazine (Sigma-Aldrich), and treated i.n. with 50 μl of PBS containing 100 μg of OVA.
In preliminary experiments the peptide or “mock” peptide was given at either of two different time points (24 h prior to i.p. OVA sensitization or 24 h prior to i.n. OVA challenge) at a final concentration of either 1 mM (solution) or 50 mM (suspension) in phosphate-buffered saline (PBS; 0.02 M sodium phosphate buffer with 0.15 M sodium chloride, pH adjusted to 7.4.). The 50 mM concentration of the TCR peptide was chosen because 500 μM was the optimal blocking concentration for T cells in in vitro experiments. However, experiments using titration of the peptide will be used to determine the optimal dose. A 100 μl volume of formulated peptide was administered to the mice intranasally. […]
Three days after the i.n. challenge with OVA, the mice from the different groups were sacrificed, the tracheas were cannulated, and a BAL was performed by flushing lung and airways five times with 1 ml of PBS. BAL cells were counted and spun on to glass slides using a cytospin (Shandon Southern Products, Asmoor, U.K.), and then stained with Diff-Quik (Roche Diagnostics, Mannheim, Germany) according to the manufacturer's instructions. […]
Percentages of macrophages, lymphocytes, neutrophils, and eosinophils were determined microscopically using standard histological criteria.
On days 1-6 after the last intranasal challenge with either OVA or saline, the lungs were analyzed by histology. […] The number of eosinophils in the lungs was quantified microscopically using a calibrated stage. […]

Brown Norway rats = assay: Brown Norway rat OVA model of asthma: BAL leukocytes, eosinophil peroxidase and myeloperoxidase; type: in vivo; settings: administration prior to challenge with allergen
Protocol: The Brown Norway rat model was also employed to test the effects of TCR mimic peptides on reducing the symptoms of asthma. Similarly to the murine model described above, this model also involves immunisation with OVA. The model is described in Elwood, 1991. The model is illustrated in FIG. 5. In this model 10 rats were used per treatment group.
Rats were immunized against OVA by s.c. injection on Day 1, 14 and 21, and on Day 28 an inhalation challenge dose of OVA protein was administered. One day later (Day 29) the degree of airway inflammation was assessed by bronchoalveolar lavage (BAL), followed by counting of the infiltrating leukocytes and measurement of the activity of eosinophil peroxidase and myeloperoxidase.
Male Brown Norway rats (approximately 8 wks of age) were injected s.c. with 10 μg of OVA in 1 ml of alum adjuvant on day 1, 14 and 21. Concurrently, the animals received an i.p. injection of 0.25 ml Bordetella pertussis vaccine (Trivax-Evans Medical). Seven days. after the final sensitizing dose, the animals were restrained and exposed, nose only, to an aerosol of 10 mg/ml OVA for 1 h using a Wright nebuliser.
In these experiments the peptide was administered either intra-tracheally (i.t) (3 mg/ml, 50 μl in 0.9% saline per rat, 24 hours before OVA challenge), intra-nasally (i.n.) (50 mg/ml, 100 μl in 0.9% saline per rat, 24 hours before OVA challenge) or by inhalation (0.1 mg/ml in 0.9% saline, 50 ml delivered by aerosol at a flow rate of 1 ml/min, for a total of 50 minutes, using a Wright nebuliser to ten (10) rats, 24 h and 4 h prior to OVA challenge). […]
Twenty-four hours after the challenge with OVA, the rats from the different groups were anaesthetized by an i.p injection of sodium pentobarbital (100 mg/kg). […] The BAL fluid was centrifuged and the collected cells resuspended in 2 ml of PBS and the total number of leukocytes recovered were counted. The activity of eosinophil peroxidase and myeloperoxidase in the supernatant, following centrifugation (i.e., the cell-free BAL fluid) was determined by the method described in Schneider et al. 1997.

sensitised animals = settings: applied topically following application of a contact allergen; cited from earlier work
BALB/c mice [3] = assay: Whole body plethysmography of airway obstruction in the murine OVA model; type: in vivo, mouse; settings: preliminary experiment, peptide before allergen challenge, days 0-6
Protocol: Mice were immunized against OVA by i.p. injection and fourteen days later an intra-nasal (i.n.) challenge dose of OVA protein was administered. Three days later the degree of airway inflammation was assessed by bronchoalveolar lavage (BAL,) followed by counting the infiltrating leukocytes. In addition, the lungs were sectioned and stained with haematoxylin and eosin for histological analysis. In a preliminary experiment, live mice were monitored after treatment using whole body plethysmography to assess the degree of airway obstruction. The effects of antigen challenge on airway hyperreactivity of mice in the experimental model described above can be measured by whole body plethysmography. This can be used to make an accurate comparison with the airway hyperreactivity observed in human asthmatics. The mice are anesthetized with pentobarbitol (70-90 mg/kg body weight, i.p.), and the jugular vein is cannulated with PE 10 silastic tubing. The tracheae are then intubated with a specially-angled 18 gauge needle, the chest opened, and the tubing connected to a Harvard ventilator (tidal volume=0.2 ml, frequency 120 breaths/min, positive end-expiratory pressure 2.5-3.0 cm H2 O) and placed in a whole body plethysmograph. This ventilation maintains normal arterial blood gases in the subject mouse. The dead space volume is 0.025 ml. […]

## NH2-Gly-Leu-Arg-Ile-Leu-Leu-Leu-Lys-Val-OH (H-GLRILLLKV-OH) [peptide, 9 amino acids, murine TCR-α transmembrane chain]
[1]
  therapeutic activity in human patients: showed therapeutic activity
T cells
  optimal blocking concentration for T cells: 500 µM
BALB/c mice [2]; asthmatic mice, non-transgenic system
  asthma symptoms: reduces asthma symptoms
BALB/c mice [2]; group C: peptide i.n. 24 h before i.n. OVA challenge, two independent experiments, pooled data
  eosinophilia in BAL: significant decrease
BALB/c mice [2]; two independent experiments, pooled data
  eosinophilia on lung histology / eosinophil infiltration into lung tissue: significant decrease
BALB/c mice [2]; two independent experiments, pooled data, listed as TCR mimic peptide
  eosinophilia on lung histology / eosinophil infiltration into lung tissue: marked reduction
Brown Norway rats
  eosinophil peroxidase activity in bronchoalveolar lavage fluid: reduction
  leukocyte infiltration into lung tissue: marked reduction
  myeloperoxidase activity in bronchoalveolar lavage fluid: reduction
Sensitised animals
  development of contact sensitivity: inhibited development of contact sensitivity
BALB/c mice [3]
  airway obstruction measured by whole body plethysmography: significant effects
BALB/c mice [3]; listed as TCR mimic peptide
  airway obstruction measured by whole body plethysmography: significant reduction
